pIC50: −log10 of the molar value.
Tested on: 485176-168-R4-J1-PDC spheroids with HUVEC/MSC, viability
Test: Anticancer human tumor 485176-168-R4-J1-PDC patient-derived pancreatic adenocarcinoma cell line growth inhibition [GQUAD]
Conditions: for pIC50: curve of first compound; for viability, T/C: stronger effect = lower value
Procedure, shortened: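 Tumor cells were grown as complex spheroids with HUVEC endothelial cells and mesenchymal stem cells as stroma. G-quadruplex stabilizers were combined with targeted agents over half-log dilutions from near the clinical Cmax, or from 10 microM.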
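Also: spheroids exposed to compounds for seven days before readout.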
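For viability, T/C in this document: percent viability relative to DMSO vehicle control wells as 100%.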

**Q.** O=C(NO)c1cnc(N2CCN(S(=O)(=O)c3ccc4ccccc4c3)CC2)nc1 + CN(C)c1ccc(Nc2c3ccc(NC(=O)CCN4CCCC4)cc3nc3cc(NC(=O)CCN4CCCC4)ccc23)cc1 was tested. Which pIC50 (second compound 0.0316 µM) did it give?
**A.** The pIC50 was 6.31.

**Q.** And the pIC50 (second compound 0.1 µM)?
**A.** Its pIC50 is 6.33.

**Q.** And the pIC50 (second compound 0.316 µM)?
**A.** Its pIC50 is 6.30.

**Q.** What about the pIC50 (second compound 1 µM) of the same molecule?
**A.** Its pIC50 is 6.34.

**Q.** And the pIC50 (second compound 3.16 µM)?
**A.** The pIC50 was 6.27.

**Q.** And the pIC50 (second compound 10 µM)?
**A.** Its pIC50 is 6.42.

**Q.** And the viability, T/C (second compound 0.0316 µM, first compound 0.0316 µM)?
**A.** Its viability, T/C is 92.8%.

**Q.** And the viability, T/C (second compound 0.0316 µM, first compound 0.1 µM)?
**A.** Its viability, T/C is 84.5%.

**Q.** What about the viability, T/C (second compound 0.0316 µM, first compound 0.316 µM) of the same molecule?
**A.** Its viability, T/C is 74.8%.

**Q.** And the viability, T/C (second compound 0.0316 µM, first compound 1 µM)?
**A.** Its viability, T/C is 10.4%.

**Q.** And the viability, T/C (second compound 0.0316 µM, first compound 3.16 µM)?
**A.** The viability, T/C was 0.23%.

**Q.** What about the viability, T/C (second compound 0.0316 µM, first compound 10 µM) of the same molecule?
**A.** Its viability, T/C is 0.27%.

**Q.** What about the viability, T/C (second compound 0.1 µM, first compound 0.0316 µM) of the same molecule?
**A.** The viability, T/C was 85.5%.

**Q.** What about the viability, T/C (second compound 0.1 µM, first compound 0.1 µM) of the same molecule?
**A.** Its viability, T/C is 92.1%.

**Q.** And the viability, T/C (second compound 0.1 µM, first compound 0.316 µM)?
**A.** Its viability, T/C is 70.8%.

**Q.** What about the viability, T/C (second compound 0.1 µM, first compound 1 µM) of the same molecule?
**A.** Its viability, T/C is 10.7%.

**Q.** And the viability, T/C (second compound 0.1 µM, first compound 3.16 µM)?
**A.** Its viability, T/C is 0.21%.

**Q.** What about the viability, T/C (second compound 0.1 µM, first compound 10 µM) of the same molecule?
**A.** The viability, T/C was 0.2%.

**Q.** And the viability, T/C (second compound 0.316 µM, first compound 0.0316 µM)?
**A.** Its viability, T/C is 112%.

**Q.** And the viability, T/C (second compound 0.316 µM, first compound 0.1 µM)?
**A.** The viability, T/C was 85.6%.

**Q.** And the viability, T/C (second compound 0.316 µM, first compound 0.316 µM)?
**A.** Its viability, T/C is 78.5%.

**Q.** And the viability, T/C (second compound 0.316 µM, first compound 1 µM)?
**A.** The viability, T/C was 9.79%.

**Q.** What about the viability, T/C (second compound 0.316 µM, first compound 3.16 µM) of the same molecule?
**A.** The viability, T/C was 0.19%.

**Q.** What about the viability, T/C (second compound 0.316 µM, first compound 10 µM) of the same molecule?
**A.** The viability, T/C was 0.17%.

**Q.** What about the viability, T/C (second compound 1 µM, first compound 0.0316 µM) of the same molecule?
**A.** The viability, T/C was 114%.

**Q.** And the viability, T/C (second compound 1 µM, first compound 0.1 µM)?
**A.** Its viability, T/C is 88.8%.

**Q.** What about the viability, T/C (second compound 1 µM, first compound 0.316 µM) of the same molecule?
**A.** The viability, T/C was 70.9%.

**Q.** What about the viability, T/C (second compound 1 µM, first compound 1 µM) of the same molecule?
**A.** The viability, T/C was 12.5%.

**Q.** What about the viability, T/C (second compound 1 µM, first compound 3.16 µM) of the same molecule?
**A.** The viability, T/C was 0.21%.

**Q.** And the viability, T/C (second compound 1 µM, first compound 10 µM)?
**A.** Its viability, T/C is 0.2%.

**Q.** And the viability, T/C (second compound 3.16 µM, first compound 0.0316 µM)?
**A.** Its viability, T/C is 91.2%.

**Q.** What about the viability, T/C (second compound 3.16 µM, first compound 0.1 µM) of the same molecule?
**A.** The viability, T/C was 98.4%.

**Q.** What about the viability, T/C (second compound 3.16 µM, first compound 0.316 µM) of the same molecule?
**A.** The viability, T/C was 84.5%.

**Q.** And the viability, T/C (second compound 3.16 µM, first compound 1 µM)?
**A.** Its viability, T/C is 9.67%.

**Q.** What about the viability, T/C (second compound 3.16 µM, first compound 3.16 µM) of the same molecule?
**A.** The viability, T/C was 0.25%.

**Q.** And the viability, T/C (second compound 3.16 µM, first compound 10 µM)?
**A.** Its viability, T/C is 0.2%.

**Q.** And the viability, T/C (second compound 10 µM, first compound 0.0316 µM)?
**A.** The viability, T/C was 83.2%.

**Q.** What about the viability, T/C (second compound 10 µM, first compound 0.1 µM) of the same molecule?
**A.** The viability, T/C was 73.6%.

**Q.** And the viability, T/C (second compound 10 µM, first compound 0.316 µM)?
**A.** Its viability, T/C is 57.7%.

**Q.** What about the viability, T/C (second compound 10 µM, first compound 1 µM) of the same molecule?
**A.** Its viability, T/C is 12.3%.

**Q.** And the viability, T/C (second compound 10 µM, first compound 3.16 µM)?
**A.** The viability, T/C was 0.25%.

**Q.** And the viability, T/C (second compound 10 µM, first compound 10 µM)?
**A.** The viability, T/C was 0.22%.

— PubChem BioAssay AID2060509 (Molecular Pharmacology Branch, DTP, NCI, 2025)
